Patent US20020107197A1, “Ligands for G protein coupled receptors and methods of using them” (priority 2000, published 2002)

Legend:
OGR1 = molecular target: T1, OGR1 (Homo sapiens, UniProt Q15743); assay: MAP kinase reporter system in OGR1 co-transfected cells; assay type: cell-based
T1 construct: expressed in transfected cells

[1] = test system: vector-transfected HEK293 cells; assay: SRE luciferase reporter in vector-transfected HEK293 cells; assay type: cell-based, human
Procedure: The serum-response element (SRE) reporter system is a sensitive assay for receptors of lipid factors (An et al. (1998) J Biol Chem 273, 7906-7910; An et al. (1999) Mol Pharmacol 55, 787-794). The SRE reporter system used herein (pSRE-Luc) was a gift from Dr. Songzhu An (UCSF), or may be purchased from Stratagene (La Jolla, Calif.). Both systems give identical results. HEK293 and HEK293GPR4 cells were cultured in RPMI1640 with 10% FBS in 10 cm dishes to ˜85% confluence. To the cells in each dish, pSRE-Luc (10 μg) was transfected in the presence of 60 μl LipofectAMINE reagent. Cells were seeded in 96-well plates 16 h after transfection, incubated for another 24 h in RPMI1640 with 10% FBS, and starved in serum-free medium for 16 h. SPC (dissolved in PBS to 10 mM) and other lipids (LPCs were dissolved in 70% ethanol. Other lipids were dissolved in PBS, 70-95% ethanol, or 100% MeOH) were diluted in serum free RPMI 1640 and added to the cells, followed by a 10 h incubation. Luciferase activity was measured in Microlite™ 1 plates (DYNEX Technologies, Inc., Virginia) using 60 μl of cell lysate and 20 μl luciferase substrate. PTX (100 ng/ml) was added during the 16 h serum starvation period and pcDNA1-C3 (encoding the C3-exoenzyme, 2 μg) was co-transfected with pSRE-Luc (10 μg). All experiments were performed in quadruplicate and were repeated at least three times. The Student's t test was performed using the GraphPad Instat software (San Diego, Calif.). p<0.05 was considered to be statistically significant.

TDAG8 [2] = molecular target: T2, TDAG8 (Homo sapiens, UniProt Q8IYL9); assay: TDAG8 receptor internalization; assay type: cell-based
T2 construct: expressed in transfected cells
Text: G protein coupled receptors undergo agonist-dependent desensitization and internalization.

GPR4 [3] = molecular target: T3, GPR4 (Homo sapiens, UniProt P46093); assay: Radioligand binding to homogenates of GPR4-transfected CHO cells; settings: GPR4-transfected CHO cell homogenates; for maximum binding capacity / Kd: 4° C.; for Kd: Scatchard analysis, [3H]SPC or [3H]16:0-LPC, read-out: dissociation constant (Kd); for competition for binding of [3H]SPC and [3H]16:0-LPC to GPR4: cold competitors
T3 construct: were used to generate full length GPR4, which was digested with EcoRI and Xba I and cloned into the pBs3HA vector; expressed in transfected cells
Procedure: To characterize the binding of SPC and LPC to GPR4 and TDAG8, we conducted radioligand binding assays. CHO cells were chosen for GPR4 binding assays, since HEK293 cells express relatively high levels of endogenous GPR4. CHO cells stably transfected with empty vector or GPR4 were serum starved for 20 h, then collected after exposure to 2 mM EDTA in PBS. The pelleted cells were stored at −80° C. until use. Binding assays were performed essentially as described previously (Xu et al. (2000) Nat Cell Biol 2, 261-267), except binding was performed at 4° C. Briefly, frozen cells (10^6 cells/ml) were homogenized in a binding buffer. Assays were performed in 96-well plates in triplicate with 100 μl cell homogenate (equivalent to 10^5 cells/well). Different amounts of [^3H]SPC or [^3H]16:0-LPC were added to the cell homogenates in 50 μl of binding buffer, in the presence or absence of cold SPC or 16:0-LPC, or other competitors. The plates were incubated at 4° C. for 120 min, unless otherwise indicated. Cell-bound [^3H]SPC or [^3H]LPC was collected onto a filter (Printed Filtermat A, Wallac, Gaithersburg, Md.) using an automated cell harvester (HARVESTER 96, Tomtec, Orange, Conn.). Specific binding was calculated by subtraction of nonspecific binding (binding detected in the presence of 100-fold excess unlabeled SPC or 16:0-LPC) from the total binding.
Cell homogenates were used for binding assays. Binding was conducted at 4° C. for 120 min or as indicated. [^3H]SPC and [^3H]16:0-LPC specifically bound to cell homogenates from GPR4-transfected CHO cells in a time-dependent manner and reached equilibrium after 60 min incubation at 4° C. […] The maximum binding capacities for SPC and 16:0-LPC were 996 fmole/10^5 cells for SPC and 1,528 fmole/10^5 cells for 16:0-LPC. […] Binding assays using [^3H]18:0-LPC gave similar results. We also tested the four glycosphingolipids, Psy, Glu-Sph, Gal-Cer, and Lac-Cer, for their ability to compete for the binding of [^3H]SPC and [^3H]16:0-LPC to GPR4.

TDAG8 [4] = molecular target: T2, TDAG8; assay: MAP kinase reporter system in TDAG8 co-transfected HEK293 cells; assay type: cell-based; settings: 1-5 μM
Text: To further explore the TDAG8-mediated cellular response to SPC, MAP kinase activation was examined using the MAP kinase reporter system from Stratagene.

GPR4 [5] = molecular target: T3, GPR4; assay: Single-cell intracellular calcium assay (fura-2) in GPR4-GFP-transfected MCF10A cells; assay type: cell-based; settings: for EC50: GPR4-transfected MCF10A cells, 1 mM EGTA, read-out: EC50 of calcium mobilization; for block of the lipid-induced increase in [Ca2+]i by BSA: lipid 1 μM preincubated with 0.5% fatty acid-free BSA, lipid:BSA approximately 1:75; for increase in [Ca2+]i in GPR4- vs vector-transfected/parental MCF10A cells: lipid at 1 μM
Procedure: Measurement of [Ca^2+]i, was performed as described previously in Xu et al. (2000) Nat Cell Biol 2, 261-267. Briefly, pGPR4-GFP-transfected MCF10A cells were grown in specialized glass-bottom dishes (Bioptech, Inc., Butler, Pa.) and loaded with fura-2 in HEPES buffered saline. Using a dual-wavelength spectrofluorometer (RFK-6002, Photon Technology Int'l, So. Brunswick, N.J.) coupled to an inverted fluorescence microscope (Olympus, IX-70, Lake Success, N.Y.), GFP-positive cells were identified using an excitation wavelength of 488 nm, a dichroic 505 nm long-pass filter and an emitter filter at bandpass of 535 nm (Chroma Technology, Brattleboro, Vt.). Measurements of [Ca^2+]i were performed on individual GPR4-GFP positive cells at excitation wavelengths of 340 and 380 nm and an emission wavelength of 510 nm. Conversion of the 340/380 ratio value into [Ca^2+]i in nM was estimated by comparing the cellular fluorescence ratio with ratios acquired using fura-2 (free acid) in buffers containing known Ca^2+ concentrations. [Ca^2+]i was then calculated as described by Grynkiewicz et al. (1985) J Biol Chem 260, 3440-3450. All calcium assays were performed in the presence of 1 mM EGTA in the assay buffers. Therefore, intracellular calcium release, not calcium influx, was analyzed.
To test whether GPR4 is a receptor for SPC, MCF10A cells were transiently transfected with pGPR4-GFP.
The GFP receptor fusion was used to identify positively transfected cells, and single-cell calcium assays were performed as described in our previous studies, such as Xu et al. (2000) Nat Cell Biol 2, 261-267.

T3 sequence (P46093 whole entry): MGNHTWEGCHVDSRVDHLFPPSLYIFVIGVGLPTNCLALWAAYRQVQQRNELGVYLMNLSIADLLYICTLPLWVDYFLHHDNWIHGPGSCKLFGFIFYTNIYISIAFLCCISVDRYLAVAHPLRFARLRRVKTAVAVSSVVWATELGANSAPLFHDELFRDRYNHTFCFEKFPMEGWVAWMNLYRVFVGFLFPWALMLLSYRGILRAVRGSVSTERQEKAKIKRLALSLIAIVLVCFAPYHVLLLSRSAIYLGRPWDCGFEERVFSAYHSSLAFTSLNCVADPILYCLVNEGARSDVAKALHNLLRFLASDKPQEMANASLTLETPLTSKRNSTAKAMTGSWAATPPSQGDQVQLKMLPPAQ
T2 sequence (Q8IYL9 whole entry): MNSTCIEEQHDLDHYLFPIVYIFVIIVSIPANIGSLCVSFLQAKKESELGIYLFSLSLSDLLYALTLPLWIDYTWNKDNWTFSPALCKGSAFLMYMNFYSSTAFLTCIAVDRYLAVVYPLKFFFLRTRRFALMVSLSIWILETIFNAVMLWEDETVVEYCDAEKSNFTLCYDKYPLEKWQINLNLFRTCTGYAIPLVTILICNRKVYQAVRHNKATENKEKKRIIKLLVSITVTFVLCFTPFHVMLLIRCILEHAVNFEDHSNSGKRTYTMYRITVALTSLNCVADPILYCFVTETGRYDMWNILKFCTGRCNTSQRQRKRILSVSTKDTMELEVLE
T1 sequence (Q15743 whole entry, species assumed): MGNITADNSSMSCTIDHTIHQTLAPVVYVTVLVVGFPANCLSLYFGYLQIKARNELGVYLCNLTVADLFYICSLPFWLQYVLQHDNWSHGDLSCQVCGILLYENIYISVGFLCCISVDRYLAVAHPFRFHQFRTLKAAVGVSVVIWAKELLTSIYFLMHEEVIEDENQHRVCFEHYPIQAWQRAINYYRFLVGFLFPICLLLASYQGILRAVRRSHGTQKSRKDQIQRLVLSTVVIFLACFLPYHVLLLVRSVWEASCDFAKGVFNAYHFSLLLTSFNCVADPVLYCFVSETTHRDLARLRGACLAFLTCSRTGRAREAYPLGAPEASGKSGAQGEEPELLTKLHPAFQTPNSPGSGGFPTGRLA

Compound	MAP kinase activation (reporter) (OGR1)	activation of SRE reporter ([1]; lipid 1 μM)	TDAG8 receptor internalization (TDAG8 [2])	maximum binding capacity (GPR4 [3])	Kd (GPR4 [3])	competition for binding of [3H]SPC and [3H]16:0-LPC to GPR4 (GPR4 [3])	activation of p42/44 MAP kinase (reporter luciferase activity) (TDAG8 [4])	EC50 (GPR4 [5])	block of the lipid-induced increase in [Ca2+]i by BSA (GPR4 [5])	increase in [Ca2+]i in GPR4- vs vector-transfected/parental MCF10A cells (GPR4 [5])	transcriptional activation of SRE (in words) [1]
CCCCCCCCCCCCC/C=C/[C@@H](O)[C@@H](N)COP(=O)([O-])OCC[N+](C)(C)C [SPC, Sphingosylphosphorylcholine]	only achieved by SPC	≤ 1.5 fold	induced TDAG8 receptor internalization	996 fmole/10^5 cells	36 nM	successfully competed for binding	induced activation of p42/44 MAP kinase	105 nM	more than 50%	stimulated an increase in [Ca^2+]i in GPR4-, but not vector-transfected MCF10A cells	–
CCCCCCCCCCCCCCCC(=O)OC[C@@H](O)COP(=O)([O-])OCC[N+](C)(C)C [16:0-LPC]	–	–	–	1,528 fmole/10^5 cells	159 nM	successfully competed for binding	–	–	–	stimulated to produce increased [Ca^2+]i	not
lysophosphatidylcholine [LPC]	weakly inhibitory	–	not	–	159 nM	–	induced activation of p42/44 MAP kinase	1100 nM	> 95%	–	–
